Where “and” joins values, the source holds several entries; their conditions need not be identical. Equal entries are not always repeated. Toxic doses and inconclusive results are not listed. Peptide text beside a SMILES is read from it. * marks the point of attachment. For = O=C*
Test system: P388 leukemia ip, CD2F1 mice, survival T/C
Test: NCI In Vivo Anticancer Drug Screen. Data for tumor model P388 Leukemia (intraperitoneal) in CD2F1 (CDF1) mice
Conditions: endpoint: median survival time, higher = longer survival
Summary of the method: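 Mice carrying the transplanted tumor received test compound or vehicle. Survival was recorded in each group, and the value is the treated-group measurement divided by that of the vehicle-treated control group.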

[1] = dose: 25.0 mg/kg/injection, schedule: Q01DX009 (ip), vehicle: Klucel (hydroxypropylcellulose) (HPC)
[2] = dose: 50.0 mg/kg/injection, schedule: Q01DX009 (ip), vehicle: Klucel (hydroxypropylcellulose) (HPC)
[3] = dose: 100.0 mg/kg/injection, schedule: Q01DX009 (ip), vehicle: Klucel (hydroxypropylcellulose) (HPC)
[4] = dose: 50.0 mg/kg/injection, schedule: Q01DX005 (ip), vehicle: saline with Tween-80
[5] = dose: 100.0 mg/kg/injection, schedule: Q01DX005 (ip), vehicle: saline with Tween-80
[6] = dose: 200.0 mg/kg/injection, schedule: Q01DX005 (ip), vehicle: saline with Tween-80
[7] = dose: 50.0 mg/kg/injection, schedule: Q01DX005 (ip), vehicle: Klucel (hydroxypropylcellulose) (HPC)
[8] = dose: 100.0 mg/kg/injection, schedule: Q01DX005 (ip), vehicle: Klucel (hydroxypropylcellulose) (HPC)
[9] = dose: 200.0 mg/kg/injection, schedule: Q01DX005 (ip), vehicle: Klucel (hydroxypropylcellulose) (HPC)
[10] = dose: 60.0 mg/kg/injection, schedule: Q01DX005 (ip), vehicle: saline with Tween-80
[11] = dose: 120.0 mg/kg/injection, schedule: Q01DX005 (ip), vehicle: saline with Tween-80
[12] = dose: 50.0 mg/kg/injection, schedule: Q01DX009 (ip), vehicle: saline
[13] = dose: 100.0 mg/kg/injection, schedule: Q01DX009 (ip), vehicle: saline
[14] = dose: 200.0 mg/kg/injection, schedule: Q01DX009 (ip), vehicle: saline
[15] = dose: 12.5 mg/kg/injection, schedule: Q01DX009 (ip), vehicle: saline with Tween-80
[16] = dose: 240.0 mg/kg/injection, schedule: Q01DX005 (ip), vehicle: saline with Tween-80
[17] = dose: 60.0 mg/kg/injection, schedule: Q01DX005 (ip), vehicle: saline
[18] = dose: 120.0 mg/kg/injection, schedule: Q01DX005 (ip), vehicle: saline
[19] = dose: 240.0 mg/kg/injection, schedule: Q01DX005 (ip), vehicle: saline
[20] = dose: 25.0 mg/kg/injection, schedule: Q01DX009 (ip), vehicle: saline with Tween-80
[21] = dose: 50.0 mg/kg/injection, schedule: Q01DX009 (ip), vehicle: saline with Tween-80

Compound: C=C1C(=O)O[C@@H]2[C@H]1CC[C@H](C)[C@]1(O)CCC(=O)[C@@]21C
- T/C (dose: 12.5 mg/kg/injection, schedule: Q01DX009 (ip), vehicle: Klucel (hydroxypropylcellulose) (HPC)): 112 % of control
- T/C [1]: 114 % of control
- T/C (dose: 44.0 mg/kg/injection, schedule: Q01DX009 (ip), vehicle: Klucel (hydroxypropylcellulose) (HPC)): 115 % of control
- T/C [2]: 117 % of control
- T/C (dose: 67.0 mg/kg/injection, schedule: Q01DX009 (ip), vehicle: Klucel (hydroxypropylcellulose) (HPC)): 117 % of control
- T/C [3]: 117 % of control
- T/C (dose: 150.0 mg/kg/injection, schedule: Q01DX009 (ip), vehicle: Klucel (hydroxypropylcellulose) (HPC)): 122 % of control

Compound: CSCCC(NC(=O)C(Cc1ccccc1)NC=O)C(=O)O (stereo not drawn) (For-Phe-Met-OH; configuration not given here)
- T/C [4]: 108 % of control
- T/C [5]: 103 % of control
- T/C [6]: 104 % of control

Compound: O=C(OCC(Cl)(Cl)Cl)N1[C@@H]2C=C[C@@H](N1C(=O)OCC(Cl)(Cl)Cl)[C@@]13CCCCC21O3 (some centres not stated)
- T/C [7]: 102 % of control
- T/C [8]: 108 % of control
- T/C [9]: 103 % of control

Compound: CCOC(=O)CC(=O)Nc1sc(CC)cc1C(=O)OCC
- T/C [10]: 100 % of control
- T/C [11]: 94 % of control

Compound: Oc1ccc2c3c1OC1CCCC4[C@H](C2)N(Cc2ccoc2)CC[C@@]314 (some centres not stated)
- T/C [12]: 91 % of control
- T/C [13]: 98 % of control
- T/C [14]: 91 % of control

Compound: C=C1N=NN(c2cccc(C(F)(F)F)c2)C1N1CCOCC1 (configuration not stated)
- T/C [10]: 99 % of control
- T/C [11]: 100 % of control

Compound: OC(c1cc2cc(Cl)c(Cl)cc2c2cc(C(F)(F)F)ccc12)C1CCCCN1 (configuration not stated)
- T/C (dose: 6.25 mg/kg/injection, schedule: Q01DX009 (ip), vehicle: saline with Tween-80): 109 % of control
- T/C [15]: 102 % of control

Compound: Cc1[nH]c2c(ccc3c2ccc2c(=O)c(Cl)c(C)[nH]c23)c(=O)c1Cl
- T/C [4]: 96 % of control
- T/C [5]: 95 % of control
- T/C [6]: 94 % of control

Compound: Nc1nc(N)c2nc(-c3ccc([N+](=O)[O-])cc3)c(=O)[nH]c2n1
- T/C [10]: 94 % of control
- T/C [11]: 91 % of control
- T/C [16]: 91 % of control

Compound: CCC(=O)Nc1n[nH]c(NC(=O)CC)n1
- T/C [7]: 103 % of control
- T/C [8]: 100 % of control
- T/C [9]: 100 % of control

Compound: CC(C)SC(=S)Nc1ccc(Cl)c([N+](=O)[O-])c1
- T/C [12]: 99 % of control
- T/C [13]: 93 % of control
- T/C [14]: 103 % of control

Compound: CC(=O)NC(C=O)C(O)C(O)C(O)C(=O)O (configuration not stated)
- T/C [1]: 107 % of control
- T/C [2]: 100 % of control
- T/C [3]: 107 % of control

Compound: CS1=C2C(=O)CC(C)(C)CC2=Nc2ccccc21 (configuration not stated)
- T/C (dose: 12.5 mg/kg/injection, schedule: Q01DX005 (ip), vehicle: saline with Tween-80): 104 % of control
- T/C (dose: 25.0 mg/kg/injection, schedule: Q01DX005 (ip), vehicle: saline with Tween-80): 104 % of control
- T/C [4]: 99 % of control and 100 % of control

Compound: CN1CCC(O)CC1=O (configuration not stated)
- T/C [4]: 104 % of control
- T/C [5]: 98 % of control
- T/C [6]: 101 % of control

Compound: N#Cc1nc(CC(=O)/C=C/c2ccccc2)c(CC(=O)/C=C/c2ccccc2)nc1C#N
- T/C [17]: 103 % of control
- T/C [18]: 103 % of control
- T/C [19]: 112 % of control

Compound: COc1ccc2c(c1CCl)C(=O)OC2
- T/C [15]: 96 % of control
- T/C [20]: 111 % of control
- T/C [21]: 101 % of control and 89 % of control

Compound: CCOC(=O)c1c(O)c(C)c(=O)n2c1[nH]c1cc(C)c(C)cc12
- T/C [10]: 93 % of control
- T/C [11]: 98 % of control

Compound: CC(C)(C)C1CC=CCC1 (configuration not stated)
- T/C (dose: 50.0 mg/kg/injection, schedule: Q01DX009 (ip), vehicle: saline sonified): 109 % of control
- T/C (dose: 100.0 mg/kg/injection, schedule: Q01DX009 (ip), vehicle: saline sonified): 100 % of control

Compound: O=C1/C(=C/c2cccnc2)CCc2ccccc21
- T/C [20]: 104 % of control
- T/C [2]: 116 % of control
- T/C [21]: 108 % of control
- T/C [3]: 102 % of control
- T/C (dose: 100.0 mg/kg/injection, schedule: Q01DX009 (ip), vehicle: saline with Tween-80): 105 % of control
- T/C (dose: 200.0 mg/kg/injection, schedule: Q01DX009 (ip), vehicle: Klucel (hydroxypropylcellulose) (HPC)): 109 % of control
- T/C (dose: 200.0 mg/kg/injection, schedule: Q01DX009 (ip), vehicle: saline with Tween-80): 95 % of control

Compound: Cc1cc(C)nc(NS(=O)(=O)c2ccc(N=Cc3c4ccccc4nc4cc(Cl)ccc34)cc2)n1
- T/C [4]: 93 % of control
- T/C [5]: 93 % of control
- T/C [6]: 93 % of control

Compound: Nc1nc(CCCCc2ccccc2)c(N=Nc2ccc(Cl)cc2)c(=O)[nH]1
- T/C [10]: 97 % of control
- T/C [11]: 95 % of control
- T/C [16]: 103 % of control

Compound: O=C1C(CCl)(CCl)CCC12CN=C(Cl)C2 (configuration not stated)
- T/C [4]: 100 % of control
- T/C [5]: 100 % of control
- T/C [6]: 106 % of control

Compound: C=C1C(=O)OC2CC3(C)OC(=CC3=O)/C(C)=C\C(OC(=O)C3(C)OC3C)C12 (configuration not stated)
- T/C (dose: 1.56 mg/kg/injection, schedule: Q01DX005 (ip), vehicle: distilled water + Tween-80): 105 % of control
- T/C (dose: 3.12 mg/kg/injection, schedule: Q01DX005 (ip), vehicle: distilled water + Tween-80): 99 % of control
- T/C (dose: 6.25 mg/kg/injection, schedule: Q01DX005 (ip), vehicle: distilled water + Tween-80): 96 % of control
- T/C (dose: 12.5 mg/kg/injection, schedule: Q01DX005 (ip), vehicle: distilled water + Tween-80): 101 % of control

Compound: O=C(n1ccnc1)C(F)(F)C(F)(F)F
- T/C [17]: 95 % of control
- T/C [18]: 101 % of control
- T/C [19]: 96 % of control

Compound: CCOC(=O)/C(C#N)=C/Nc1cc(C(=O)OC)ccc1C
- T/C [4]: 88 % of control
- T/C [5]: 90 % of control

Compound: COc1ccc(NC(=O)CCC(=O)CC(=O)c2ccc(C)cc2)cc1
- T/C [10]: 105 % of control
- T/C [11]: 106 % of control
- T/C [16]: 101 % of control

Compound: C/C=C(/C)C(=O)O[C@H]1C[C@H](C(C)C)c2cc(C)c(O)cc2[C@H]1C
- T/C (dose: 57.5 mg/kg/injection, schedule: Q01DX001 (ip), vehicle: Klucel (hydroxypropylcellulose) (HPC)): 100 % of control
- T/C (dose: 115.0 mg/kg/injection, schedule: Q01DX001 (ip), vehicle: Klucel (hydroxypropylcellulose) (HPC)): 97 % of control
- T/C (dose: 230.0 mg/kg/injection, schedule: Q01DX001 (ip), vehicle: Klucel (hydroxypropylcellulose) (HPC)): 99 % of control

Compound: CC1(C)C(C(N)=O)C(=O)NC(=O)C1C(N)=O (configuration not stated)
- T/C (dose: 25.0 mg/kg/injection, schedule: Q01DX009 (ip), vehicle: other): 100 % of control
- T/C (dose: 50.0 mg/kg/injection, schedule: Q01DX009 (ip), vehicle: other): 100 % of control
- T/C (dose: 100.0 mg/kg/injection, schedule: Q01DX009 (ip), vehicle: other): 99 % of control
- T/C (dose: 200.0 mg/kg/injection, schedule: Q01DX009 (ip), vehicle: other): 100 % of control
- T/C (dose: 400.0 mg/kg/injection, schedule: Q01DX009 (ip), vehicle: other): 105 % of control

Compound: CN(CC(N)=O)C(=O)N(CCCl)N=O
- T/C (dose: 15.0 mg/kg/injection, schedule: Q01DX005 (ip), vehicle: saline with Tween-80): 160 % of control
- T/C (dose: 30.0 mg/kg/injection, schedule: Q01DX005 (ip), vehicle: saline with Tween-80): 201 % of control
- T/C [10]: 263 % of control

Compound: COc1cccc(/C=N\NC(=O)C(C)SC(C)C(=O)N/N=C/c2cccc(OC)c2)c1 (configuration not stated)
- T/C (dose: 100.0 mg/kg/injection, schedule: Q04DX003 (ip), vehicle: saline with Tween-80): 104 % of control
- T/C (dose: 200.0 mg/kg/injection, schedule: Q04DX003 (ip), vehicle: saline with Tween-80): 90 % of control
- T/C (dose: 400.0 mg/kg/injection, schedule: Q04DX003 (ip), vehicle: saline with Tween-80): 100 % of control

Compound: O=NNc1ccc2cc3ccc(NN=O)cc3nc2c1
- T/C (dose: 25.0 mg/kg/injection, schedule: Q01DX009 (ip), vehicle: water): 122 % of control
- T/C (dose: 50.0 mg/kg/injection, schedule: Q01DX009 (ip), vehicle: water): 106 % of control and 97 % of control
